For 26 compounds, IC50 and GI50 results are on record in ChEMBL document CHEMBL5357036, “Latest developments in coumarin-based anticancer agents: mechanism of action and structure-activity relationship studies” (RSC Med Chem, 2024).

pIC50: −log10 of the molar value. In brackets after ≈: the same amount, converted by molar mass.

Data set [1] deals with SW480. The experiment in a line: Cytotoxicity against human SW480 cells assessed as reduction in cell viability incubated for 48 hrs by MTT. It is filed as functional, cell-based. Conditions: SW480, 48 h.
Data set [2] has as its system MCF7. The experiment in a line: Growth inhibition of human MCF7 cells incubated for 48 hrs by SRB assay. It is filed as functional.
Data set [3] deals with T47D. The experiment in a line: Anticancer activity against human T47D cells assessed as cell growth inhibition. It counts as functional, cell-based.
The test system of data set [4] is A2780. The experiment in a line: Antiproliferative activity against human A2780 cells assessed as reduction in cell viability incubated for 48 hrs by MTT assay. It is filed as functional, cell-based. The settings on record: A2780, 48 h.
In data set [5] the test system is Hep 3B2. In words: Antiproliferative activity against human Hep3B cells assessed as inhibition of cell viability after 72 hrs by CCK-8 assay. It is filed as functional, cell-based.
The test system of data set [6] is HepG2. In words: Antiproliferative activity against human HepG2 cells assessed as reduction in cell viability. It counts as functional, cell-based.
The test system of data set [7] is OVCAR-3. In words: Antiproliferative activity against human OVCAR-3 cells assessed as cell viability measured after 72 hrs incubation by MTT assay. The settings on record: OVCAR-3, 72 h. It counts as functional, cell-based. On the technique in general: Tetrazolium dyes change colour on reduction, which living cells bring about.
In data set [8] the test system is HOS. The experiment in a line: Cytotoxicity against human HOS cells assessed as reduction in cell growth incubated for 5 days by MTT assay. It is filed as functional, cell-based. The settings on record: 120 h.
Data set [9] deals with MCF7. In words: Cytotoxicity against human MCF7 cells assessed as reduction in cell growth incubated for 5 days by MTT assay. It is filed as functional, cell-based. The settings on record: MCF7, 120 h.
The subject of data set [10] is MCF7. The experiment in a line: Antiproliferative activity against human MCF7 cells assessed as reduction in cell proliferation by CCK-8 assay. It is filed as functional, cell-based.
Data set [11] relates to HT-29. In words: Cytotoxicity against human HT-29 cells assessed as reduction in cell viability incubated for 48 hrs by SRB assay. It is filed as functional, cell-based. Conditions: HT-29, 48 h. For orientation: Sulforhodamine B stains cellular protein and so reports cell mass.
The subject of data set [12] is HCT-116. In words: Cytotoxicity against human HCT-116 cells assessed as reduction in cell viability incubated for 48 hrs by SRB assay. It counts as functional, cell-based. The settings on record: HCT-116, 48 h.
Data set [13] deals with MCF7. The experiment in a line: Cytotoxicity against human MCF7 cells assessed as reduction in cell growth incubated for 48 hrs by MTT assay. It counts as functional, cell-based. Conditions: MCF7, 48 h.
The subject of data set [14] is A549. In words: Cytotoxicity against human A549 cells assessed as reduction in cell growth incubated for 48 hrs by MTT assay. It is filed as functional, cell-based. The settings on record: A549, 48 h.
The target of data set [15] is ALK tyrosine kinase receptor (Homo sapiens, UniProt Q9UM73, L1196M). In words: Inhibition of ALK L1196M mutant (unknown origin).
For data set [16], the system named is MCF7. In words: Antiproliferative activity against human MCF7 cells assessed as reduction in cell viability by MTT assay. It counts as functional, cell-based.
For data set [17], the system named is MCF7. The experiment in a line: Antiproliferative activity against human MCF7 cells assessed as reduction in cell viability incubated for 72 hrs by MTT assay. It is filed as functional, cell-based. The settings on record: MCF7, 72 h.
Data set [18] deals with HepG2. The experiment in a line: Antiproliferative activity against human HepG2 cells assessed as reduction in cell viability by MTT assay. It counts as functional, cell-based.
For data set [19], the system named is DU-145. In words: Antiproliferative activity against human DU-145 cells assessed as reduction in cell viability by MTT assay. It counts as functional, cell-based.
In data set [20] the test system is A549. In words: Antiproliferative activity against human A549 cells assessed as reduction in cell viability by MTT assay. It counts as functional, cell-based.
For data set [21], the system named is MCF7-DOX. In words: Antiproliferative activity against human MCF7-DOX cells assessed as reduction in cell viability by MTT assay. It is filed as functional, cell-based.
For data set [22], the system named is SK-OV-3. In words: Antiproliferative activity against human SK-OV-3 cells assessed as reduction in cell viability by MTT assay. It counts as functional, cell-based.
Data set [23] deals with HeLa. In words: Antiproliferative activity against human HeLa cells assessed as reduction in cell viability by MTT assay. It is filed as functional, cell-based.
Data set [24] has as its system MCF7. The experiment in a line: cells. The settings on record: Homo sapiens, MCF7, 24 h.
Description: Cytotoxicity against human MCF7 cells assessed as reduction in cell viability incubated for 24 hrs by MTT assay
Data set [25] is described as follows: Cytotoxicity against green monkey COS-7 cells. It is filed as toxicity, cell-based. The settings on record: green monkey (Chlorocebus aethiops).
For data set [26], the system named is Caco-2. The experiment in a line: Cytotoxicity against human Caco-2 cells assessed as reduction in cell viability incubated for 72 hrs by MTT assay. It counts as functional, cell-based. The settings on record: Caco-2, 72 h.
Data set [27] deals with MCF7. The experiment in a line: Cytotoxicity against human MCF7 cells assessed as inhibition of cell growth measured after 24 hrs by MTT assay. It counts as functional, cell-based. The settings on record: MCF7, 24 h.
Data set [28] has as its system MDA-MB-231. The experiment in a line: Antiproliferative activity against human MDA-MB-231 cells assessed as reduction in cell viability measured after 72 hrs under hypoxia condition by MTT assay. It counts as functional, cell-based. The settings on record: MDA-MB-231, 72 h.
In data set [29] the test system is MDA-MB-231. The experiment in a line: Antiproliferative activity against human MDA-MB-231 cells assessed as reduction in cell viability measured after 72 hrs under normoxia condition by MTT assay. The settings on record: MDA-MB-231, 72 h.
The test system of data set [30] is MCF7. In words: Antiproliferative activity against human MCF7 cells assessed as reduction in cell viability measured after 24 hrs by MTT assay. It counts as functional, cell-based. The settings on record: MCF7, 24 h.

ALK tyrosine kinase receptor, sequence (Q9UM73 19-1620 L1196M limits assumed): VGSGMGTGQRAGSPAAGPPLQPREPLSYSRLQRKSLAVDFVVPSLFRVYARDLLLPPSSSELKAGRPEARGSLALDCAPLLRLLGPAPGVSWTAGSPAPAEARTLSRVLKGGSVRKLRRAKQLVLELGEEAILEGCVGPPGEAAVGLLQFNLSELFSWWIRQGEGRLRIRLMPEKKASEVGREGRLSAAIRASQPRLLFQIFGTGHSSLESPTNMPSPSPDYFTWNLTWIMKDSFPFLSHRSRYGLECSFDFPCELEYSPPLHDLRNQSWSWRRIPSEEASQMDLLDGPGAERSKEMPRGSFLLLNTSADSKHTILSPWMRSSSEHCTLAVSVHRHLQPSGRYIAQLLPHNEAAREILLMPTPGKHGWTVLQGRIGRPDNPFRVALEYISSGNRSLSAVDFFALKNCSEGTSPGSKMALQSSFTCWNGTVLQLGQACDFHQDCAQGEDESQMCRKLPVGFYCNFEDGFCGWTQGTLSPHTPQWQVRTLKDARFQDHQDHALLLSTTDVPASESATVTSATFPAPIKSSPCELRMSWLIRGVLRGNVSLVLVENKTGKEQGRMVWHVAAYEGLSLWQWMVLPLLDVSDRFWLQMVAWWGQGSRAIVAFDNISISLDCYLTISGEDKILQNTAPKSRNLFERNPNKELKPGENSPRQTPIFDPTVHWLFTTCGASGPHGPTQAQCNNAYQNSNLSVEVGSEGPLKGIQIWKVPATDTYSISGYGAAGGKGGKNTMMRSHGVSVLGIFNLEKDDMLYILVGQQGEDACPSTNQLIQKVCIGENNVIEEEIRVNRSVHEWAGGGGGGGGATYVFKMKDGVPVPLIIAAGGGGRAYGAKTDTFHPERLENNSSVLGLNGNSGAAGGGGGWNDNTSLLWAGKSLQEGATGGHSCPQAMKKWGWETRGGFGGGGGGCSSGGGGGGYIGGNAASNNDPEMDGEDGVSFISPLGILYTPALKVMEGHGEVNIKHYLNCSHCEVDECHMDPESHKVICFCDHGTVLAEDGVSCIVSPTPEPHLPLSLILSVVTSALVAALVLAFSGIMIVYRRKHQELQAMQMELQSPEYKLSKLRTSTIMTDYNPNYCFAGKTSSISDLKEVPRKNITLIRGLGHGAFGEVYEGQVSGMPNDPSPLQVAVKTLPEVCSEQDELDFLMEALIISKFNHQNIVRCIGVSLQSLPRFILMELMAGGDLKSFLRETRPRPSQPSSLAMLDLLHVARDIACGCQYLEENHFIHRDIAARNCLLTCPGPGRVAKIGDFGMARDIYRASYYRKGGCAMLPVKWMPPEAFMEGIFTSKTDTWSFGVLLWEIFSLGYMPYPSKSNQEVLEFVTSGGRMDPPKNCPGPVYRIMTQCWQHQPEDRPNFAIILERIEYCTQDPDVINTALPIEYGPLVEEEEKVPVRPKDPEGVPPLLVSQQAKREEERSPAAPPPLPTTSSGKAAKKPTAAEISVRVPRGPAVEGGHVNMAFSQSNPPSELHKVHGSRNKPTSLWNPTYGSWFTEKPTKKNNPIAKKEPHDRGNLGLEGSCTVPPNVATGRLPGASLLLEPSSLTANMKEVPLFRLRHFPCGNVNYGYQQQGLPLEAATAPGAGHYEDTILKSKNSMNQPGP

What is called pIC50 is the negative decadic logarithm of the IC50, by convention in mol/L. In the case of `CCCCCCCCOc1ccc2c(C)c(/C=C/c3cc(OC)ccc3OC)c(=O)oc2c1`, the pIC50 in data set [1] was 5.16.

Turning to `COc1cc(/C=C/c2ccc3ccc(=O)oc3c2)ccc1O`, the pIC50 in data set [1] is 5.27.

What is called GI50 is the concentration giving 50% growth inhibition. In [2], `O=C(/C=C/c1ccc(OCCN2CCCCC2)cc1)c1cc2ccccc2oc1=O` gave a GI50 of less than 10 µg/mL. Further, the pIC50 in [3] was 5.63.

`O=C(/C=C/c1ccccc1OCCN1CCCCC1)c1cc2ccccc2oc1=O` gave a GI50 in data set [2] of 18.9 µg/mL (≈ 46.8 µM). The pIC50 in [3] was 5.63.

The compound `COc1cc(/C=C/C(=O)c2cc3ccccc3oc2=O)ccc1OCCN1CCCCC1` had a GI50 in data set [2] of 32.5 µg/mL (≈ 75 µM). The pIC50 in data set [3] is 5.63.

On to `CCN(CC)c1ccc2cc(C(=O)N3CCN(CCC[C@H]4O[C@@H]5O[C@@]6(C)CC[C@H]7[C@H](C)CC[C@@H]([C@H]4C)[C@@]57OO6)CC3)c(=O)oc2c1`, for which the pIC50 in data set [4] was 5.24; in data set [5], 5.42; in [6], 5.52; in data set [7], 5.34.

Take `CC(c1cc2ccccc2oc1=O)(c1c[nH]c2ccc(I)cc12)c1c[nH]c2ccc(I)cc12`: the figures for the pIC50 in data set [8] and in data set [9] were 5.06 and 4.55, respectively.

As to `Cc1c(Cc2ccccc2)c(=O)oc2cc(OS(N)(=O)=O)ccc12`, the pIC50 in data set [10] is 7.49.

Consider `CCCc1cc(=O)oc2cc(Nc3nc(-c4ccc(Cl)cc4)cs3)ccc12`, for which the pIC50 in [11] and in data set [12] was 6.60 throughout.

As for `O=C(CNCc1cccnc1)Nc1cc2ccccc2oc1=O`, the pIC50 in data set [13] and in data set [14] was 4.16 throughout.

In data set [15], `COc1ccc2cc(-c3nc4ccc(OC)cc4s3)c(=O)oc2c1` had a pIC50 of 6.35.

For the compound `Cc1ccc2c(c1)C(=O)C(=O)N2CCOCCn1cc(COc2ccc3c(C)cc(=O)oc3c2)nn1`, in [16], the pIC50 is 4.54.

For the compound `COc1cc(/C=C/c2ccc3ccc(=O)oc3c2)cc(OC)c1O`, the pIC50 in [1] is 6.00.

The term IC50 denotes the midpoint of a concentration-inhibition curve. As for `Cc1cc(=O)oc2cc(OCC(=O)Nc3ccc(C(=O)/C=C/c4ccco4)cc3)ccc12`, the IC50 in data set [17] was 9.62 µg/mL (≈ 22.4 µM).

With `Cc1ccc2c(c1)/C(=N\O)C(=O)N2CCOCCn1cc(COc2ccc3c(C)cc(=O)oc3c2)nn1`, the pIC50 in data set [18] was 4.70; in [19], 4.50; in data set [20], 4.73; in [21] it was 4.81; in data set [22] it was 4.75; in data set [23] it was 4.67.

`CNC(=O)c1cc(Oc2ccc(NC(=O)Nc3ccc(Cl)c(C(F)(F)F)c3)cc2)ccn1` [SORAFENIB] had a pIC50 in data set [24] of 5.29.

Take `O=c1oc2ccccc2cc1-c1csc(N/N=C/c2cc([N+](=O)[O-])ccc2Cl)n1`: in [25], the negative-log IC50 (pIC50) is 5.71.

Regarding `CCCc1cc(=O)oc2cc(Nc3nc(-c4ccc(Br)cc4)cs3)ccc12`, the pIC50 is 6.60 in data set [11] and 6.59 in [12].

With `COc1ccccc1-c1csc(Nc2ccc3c(C)cc(=O)oc3c2)n1`, the pIC50 in [11] and in [12] was 6.60 each time.

For the compound `COc1ccccc1-c1cn(Cc2cc(=O)oc3cc(O)c(O)cc23)nn1`, the pIC50 in data set [26] is 5.01.

Consider `COc1ccc(-c2cc(-c3cc4ccccc4oc3=O)nc(N)c2C(N)=O)cc1`, for which the pIC50 in data set [27] was 5.96.

On to `COC(=O)c1cccc(NC(=O)c2ccc(-n3cc(COc4cc(=O)oc5ccccc45)nn3)cc2)c1`, for which the pIC50 in data set [28] was 6.60.

As to `COc1cccc2c1C(=O)c1c(O)c3c(c(O)c1C2=O)C[C@@](O)(C(=O)CO)C[C@@H]3O[C@H]1C[C@H](N)[C@H](O)[C@H](C)O1` [DOXORUBICIN], the negative-log IC50 (pIC50) is 5.97 in [29] and 6.22 in data set [28].

In the case of `Cc1c(NC(=O)CNCc2cccnc2)c(=O)oc2ccccc12`, the pIC50 in [13] and in [14] was 4.16 throughout.

`Cc1cc(OCc2cn(C3C(=O)N(c4cccc(Cl)c4)C3/C=C\c3ccccc3)nn2)cc2oc(=O)cc(C)c12` (stereo not given): in [30], the pIC50 is 4.23.

Regarding `Cc1cc(=O)oc2cc(Nc3nc(-c4ccc(Br)cc4)cs3)ccc12`, the pIC50 in data set [11] and in data set [12] was 6.60 in each case.
